The format of data set [1] is physicochemical. To be noted: for kinetic solubility relative to free base or hydrochloride: compared with free base or hydrochloride form.
Data set [2] can be described thus: Crystallinity (freedom from amorphous material). To be noted: i.e., substantially free of amorphous material. The class given is physicochemical.
The nature of data set [3]: Hygroscopicity (water uptake at stated relative humidity). The class given is physicochemical. To be noted: for hygroscopicity relative to the mesylate salt: compared with mesylate salt; for water absorbed: 90% relative humidity.
Data set [4] is described as follows: Stability in air / deliquescence. The class given is physicochemical. To be noted: can be used without deliquescence.
A short description of data set [5]: Tendency of concentrated aqueous solution to form viscous mixtures upon standing. The class given is physicochemical.
Data set [6] in a line: Sedative effect on dosing. To be noted: low to moderate dosing. The class given is in vivo.
A short description of data set [7]: Conversion of crystal form in refluxing ethanol. The class given is physicochemical.

With `CS(=O)(=O)O.NC(=O)c1c(OCc2c(F)cc(Br)cc2F)nsc1NC(=O)NCCCCN1CCCC1` [Example 10, 3-(4-bromo-2,6-difluoro-benzyloxy)-5-[3-(4-pyrrolidin-1-yl-butyl)-ureido]-isothiazole-4-carboxylic acid amide mesylate], in data set [1], the “kinetic aqueous solubility” value is reported as “rapid kinetic aqueous solubility”. Further, the “crystallinity” value in data set [2] is “high crystallinity”.

For `NC(=O)c1c(OCc2c(F)cc(Br)cc2F)nsc1NC(=O)NCCCCN1CCCC1.O=C(O)C(O)C(O)C(=O)O` [Example 7, 3-(4-bromo-2,6-difluoro-benzyloxy)-5-[3-(4-pyrrolidin-1-yl-butyl)-ureido]-isothiazole-4-carboxylic acid amide L-tartrate], in data set [1], the “kinetic solubility relative to free base or hydrochloride” value is reported as “greater kinetic solubility than the free base or hydrochloride form”. For the same compound, in data set [3] (100% RH), the Hygroscopicity is recorded as 0.3%. Further, the “hygroscopicity relative to the mesylate salt” value in data set [3] is listed as “less hygroscopic than the mesylate salt”. In data set [4], the “stability in air” value is “more stable in air”.

For “3-(4-bromo-2,6-difluoro-benzyloxy)-5-[3-(4-pyrrolidin-1-yl-butyl)-ureido]-isothiazole-4-carboxylic acid amide hemi-citrate [Example 4]”, the Hygroscopicity in data set [3] (87% relative RH) is 0.43%. The “hygroscopicity relative to the mesylate salt” value in data set [3] is recorded as “less hygroscopic than the mesylate salt”. In addition, the “stability in air” value in data set [4] is on record as “more stable in air”.

Take `Cl.NC(=O)c1c(OCc2c(F)cc(Br)cc2F)nsc1NC(=O)NCCCCN1CCCC1` [Example 2, 3-(4-bromo-2,6-difluoro-benzyloxy)-5-[3-(4-pyrrolidin-1-yl-butyl)-ureido]-isothiazole-4-carboxylic acid amide hydrochloride]: the “crystallinity” value in data set [2] is listed as “high crystallinity”. Besides, the “tendency for concentrated aqueous solution to form viscous mixtures upon standing” value in data set [5] is listed as “low tendency”. The “hygroscopic stability” value in data set [3] was “substantially hygroscopically stable”. The Hygroscopicity in data set [3] (90% relative humidity at ambient temperature) is given as 1 % (by weight).

Turning to “3-(4-bromo-2,6-difluoro-benzyloxy)-5-[3-(4-pyrrolidin-1-yl-butyl)-ureido]-isothiazole-4-carboxylic acid amide hemi-succinate”, the “crystallinity” value in data set [2] was “high crystallinity”. Further, in data set [3], the “hygroscopic stability” value is recorded as “substantially hygroscopically stable”.

For the compound `Br.NC(=O)c1c(OCc2c(F)cc(Br)cc2F)nsc1NC(=O)NCCCCN1CCCC1` [Example 3, 3-(4-bromo-2,6-difluoro-benzyloxy)-5-[3-(4-pyrrolidin-1-yl-butyl)-ureido]-isothiazole-4-carboxylic acid amide hydrobromide], in data set [2], the “crystallinity” value is reported as “high crystallinity”. The “tendency for concentrated aqueous solution to form viscous mixtures upon standing” value in data set [5] is listed as “low tendency”. The “hygroscopic stability” value in data set [3] is “substantially hygroscopically stable”. For the same compound, the Hygroscopicity in data set [3] (87% relative RH) came to 0.1%. Also, the “sedative effect” value in data set [6] is given as “mild sedative effect”.

Turning to `CC(=O)O.NC(=O)c1c(OCc2c(F)cc(Br)cc2F)nsc1NC(=O)NCCCCN1CCCC1` [Example 5, 3-(4-bromo-2,6-difluoro-benzyloxy)-5-[3-(4-pyrrolidin-1-yl-butyl)-ureido]-isothiazole-4-carboxylic acid amide acetate], the “crystallinity” value in data set [2] was “high crystallinity”.

Take `Cc1ccc(S(=O)(=O)O)cc1.NC(=O)c1c(OCc2c(F)cc(Br)cc2F)nsc1NC(=O)NCCCCN1CCCC1` [Example 6, 3-(4-bromo-2,6-difluoro-benzyloxy)-5-[3-(4-pyrrolidin-1-yl-butyl)-ureido]-isothiazole-4-carboxylic acid amide p-tosylate]: the “kinetic solubility relative to free base or hydrochloride” value in data set [1] is “greater kinetic solubility than the free base or hydrochloride form”. In data set [3] (87% relative RH), the Hygroscopicity is reported as −0.9%. Further, the “hygroscopicity relative to the mesylate salt” value in data set [3] was “less hygroscopic than the mesylate salt”. The “stability in air” value in data set [4] was “more stable in air”.

Regarding “3-(4-bromo-2,6-difluoro-benzyloxy)-5-[3-(4-pyrrolidin-1-yl-butyl)-ureido]-isothiazole-4-carboxylic acid amide hemi-succinate [Example 8]”, the Hygroscopicity amounted to 0.6 % w/w in data set [3] (30° C. and 90% RH, listed as Hemi-succinate crystal form A); 0.6% in data set [3] (90% relative RH). In data set [3] (listed as Form A hemi-succinate), the water absorbed is reported as 0.6%.

On to “3-(4-bromo-2,6-difluoro-benzyloxy)-5-[3-(4-pyrrolidin-1-yl-butyl)-ureido]-isothiazole-4-carboxylic acid amide hemi-succinate [Example 9]”, for which, in data set [7], the “time for conversion of hemi-succinate form B into form A” value is “less than 24 hours”. The Hygroscopicity was 1.5 % w/w in data set [3] (30° C. and 90% RH, listed as Hemi-succinate crystal form B); 1.5% in data set [3] (90% relative RH). In data set [3] (listed as Form B hemi-succinate), this compound displayed a water absorbed of 1.5%.
